Among the data in PubChem BioAssay (NCI) are GI50 and TGI values, retold here.

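Cells were grown in 96-well plates and exposed to each compound for 48 hours at five concentrations; endpoints were interpolated linearly between bracketing concentrations, or set to the highest concentration if not reached. GI50 marks 50% less growth. TGI is the concentration that stops growth completely.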

As usually defined, the GI50 is the concentration at which growth is held to half of that of the control. A word on the TGI: it is the concentration giving total growth inhibition.

Test systems include OVCAR-5 ovarian; LOX IMVI melanoma; SF-295 CNS; MOLT-4 leukemia; PC-3 prostate; RXF 393 renal; SNB-75 CNS; HOP-92 NSCLC; SF-268 CNS; SK-MEL-2 melanoma.
Common to all, as to test: DTP human tumour cell line panel, 48 h

As to `COc1cc(/C=C(/c2ccccc2)[N+](=O)[O-])c(OC)c2c1OCO2`, the GI50 with OVCAR-5 ovarian is 1.76 µM; with LOX IMVI melanoma, 1.14 µM; in the assay with SF-295 CNS, 2.78 µM; with MOLT-4 leukemia it was 1.86 µM; in the assay with PC-3 prostate, 1.71 µM; with RXF 393 renal, 1.49 µM. For the same compound, the GI50 in the assay with SNB-75 CNS is 0.539 µM; in the assay with HOP-92 NSCLC it was 1.48 µM; in the assay on SF-268 CNS, 1.84 µM; in the assay with SK-MEL-2 melanoma it was 1.85 µM. The TGI with OVCAR-5 ovarian was 3.58 µM; with LOX IMVI melanoma, 2.44 µM; with SF-295 CNS, 7.88 µM; with MOLT-4 leukemia, 6.41 µM; with PC-3 prostate, 3.59 µM; in the assay on RXF 393 renal it was 2.85 µM. In addition, the TGI in the assay with SNB-75 CNS came to 2.04 µM; with HOP-92 NSCLC, 3.2 µM; in the assay on SF-268 CNS it was 3.92 µM; in the assay with SK-MEL-2 melanoma, 4 µM.

Consider `CCCCC[C@H]1C/C=C2/C(=O)C(Cl)=C[C@@H]2C/C=C\CCCC(=O)O[C@@H](CCCCC)C/C=C2/C(=O)C(Cl)=C[C@@H]2C/C=C\CCCC(=O)O1`, for which the GI50 in the assay with OVCAR-5 ovarian is 0.689 µM; in the assay on LOX IMVI melanoma it was 0.201 µM; with SF-295 CNS, 0.362 µM; in the assay with MOLT-4 leukemia it was 0.234 µM; in the assay with PC-3 prostate, 0.368 µM; in the assay with RXF 393 renal, 0.297 µM. Further, the GI50 is 0.544 µM in the assay on SNB-75 CNS, 0.314 µM in the assay on HOP-92 NSCLC, 0.479 µM in the assay with SF-268 CNS and 0.362 µM in the assay on SK-MEL-2 melanoma. Further, the TGI in the assay with OVCAR-5 ovarian is 2.94 µM; with LOX IMVI melanoma it was 0.437 µM; with SF-295 CNS, 0.861 µM; with MOLT-4 leukemia, 1.71 µM; with PC-3 prostate, 1.08 µM; with RXF 393 renal, 0.576 µM. Further, the TGI was 3.89 µM with SNB-75 CNS, 0.687 µM with HOP-92 NSCLC, 1.68 µM in the assay with SF-268 CNS and 0.918 µM with SK-MEL-2 melanoma.

In the case of `CCSc1nc(COC(=O)NC)c(COC(=O)NC)n1C`, the TGI in the assay on OVCAR-5 ovarian was over 100 µM; in the assay on LOX IMVI melanoma it was over 100 µM; in the assay on SF-295 CNS, over 100 µM; in the assay on MOLT-4 leukemia, over 100 µM; with PC-3 prostate it was over 100 µM; in the assay on RXF 393 renal, 78.5 µM. Also, the TGI in the assay with SNB-75 CNS is over 100 µM; in the assay with HOP-92 NSCLC, over 90.6 µM; in the assay with SF-268 CNS it was over 100 µM; in the assay with SK-MEL-2 melanoma, over 100 µM.

Turning to `Fc1ccc(Nc2nc(NCCNc3ccnc4cc(Cl)ccc34)nc(N3CCOCC3)n2)cc1`, the GI50 in the assay with OVCAR-5 ovarian was 17.6 µM; in the assay on LOX IMVI melanoma it was 2.95 µM; in the assay with SF-295 CNS, 4.19 µM; in the assay on MOLT-4 leukemia, 4.16 µM; with PC-3 prostate, 4.87 µM; with RXF 393 renal, 1.89 µM. The GI50 with SNB-75 CNS was 3.13 µM; in the assay on HOP-92 NSCLC it was 1.03 µM; in the assay on SF-268 CNS, 6.85 µM; with SK-MEL-2 melanoma it was 2.2 µM. Also, the TGI with OVCAR-5 ovarian is 32.1 µM; in the assay on LOX IMVI melanoma, 10.1 µM; in the assay with SF-295 CNS, 15.3 µM; with MOLT-4 leukemia it was 16.5 µM; with PC-3 prostate, 18.5 µM; in the assay on RXF 393 renal it was 6.76 µM. For the same compound, the TGI with SNB-75 CNS worked out at 16.2 µM; in the assay on HOP-92 NSCLC, 6.88 µM; with SF-268 CNS it was 20.5 µM; in the assay on SK-MEL-2 melanoma, 4.51 µM.

As for `C[C@H](CS(C)(=O)=O)Nc1ncc2cc(Oc3ccc(F)cc3F)c(=O)n(C)c2n1`, the GI50 in the assay with OVCAR-5 ovarian, with LOX IMVI melanoma, with SF-295 CNS, with MOLT-4 leukemia, in the assay on PC-3 prostate and in the assay with RXF 393 renal was over 25 µM throughout. Also, the GI50 in the assay on SNB-75 CNS was over 25 µM; with HOP-92 NSCLC, over 10.4 µM; with SF-268 CNS, over 25 µM; in the assay with SK-MEL-2 melanoma, over 25 µM. The TGI in the assay on OVCAR-5 ovarian, in the assay with LOX IMVI melanoma, with SF-295 CNS, in the assay on MOLT-4 leukemia, in the assay with PC-3 prostate and in the assay with RXF 393 renal was over 25 µM in each case. For the same compound, the TGI in the assay on SNB-75 CNS, in the assay with HOP-92 NSCLC, in the assay with SF-268 CNS and in the assay on SK-MEL-2 melanoma was over 25 µM in each case.

Take `Cn1cc(-c2ccc(CNc3cc(-c4cnc5cc(OCCCN6CCCC6)ccn45)ncn3)cc2)cn1`: the GI50 was 2.04 µM in the assay on OVCAR-5 ovarian; 1.75 µM in the assay with LOX IMVI melanoma; 2.76 µM with MOLT-4 leukemia; 3.63 µM in the assay with PC-3 prostate; 1.61 µM in the assay on RXF 393 renal; 1.79 µM in the assay with SNB-75 CNS. Also, the GI50 with HOP-92 NSCLC was 3.89 µM; in the assay on SF-268 CNS it was 1.9 µM; in the assay on SK-MEL-2 melanoma, 15.5 µM. Also, the total growth inhibition concentration (TGI) with OVCAR-5 ovarian is 4.16 µM; in the assay on LOX IMVI melanoma it was 3.4 µM; in the assay on MOLT-4 leukemia, over 100 µM; in the assay with PC-3 prostate, over 100 µM; in the assay with RXF 393 renal it was 3.33 µM; with SNB-75 CNS, 7.78 µM. The results for the TGI with HOP-92 NSCLC, in the assay on SF-268 CNS and in the assay with SK-MEL-2 melanoma were 22.2 µM, 4.19 µM and 30.4 µM, respectively.

For `CC(C)OC(=O)c1ccc2[nH]c(O)c(C(=Nc3ccc(N(C)C(=O)CN4CCN(C)CC4)cc3)c3ccccc3)c2c1`, the GI50 in the assay with OVCAR-5 ovarian was 1.51 µM; with LOX IMVI melanoma, 0.298 µM; in the assay with SF-295 CNS, 1.19 µM; in the assay on MOLT-4 leukemia, 0.274 µM; in the assay with PC-3 prostate, 0.494 µM; with RXF 393 renal, 0.224 µM. Further, the GI50 in the assay on SNB-75 CNS is 0.101 µM; with HOP-92 NSCLC, 0.243 µM; in the assay on SF-268 CNS it was 0.387 µM; in the assay with SK-MEL-2 melanoma, 0.898 µM. The TGI with OVCAR-5 ovarian was 3.22 µM; in the assay with LOX IMVI melanoma it was 1.43 µM; with SF-295 CNS it was 2.47 µM; with MOLT-4 leukemia it was 2.16 µM; in the assay on PC-3 prostate it was 2.17 µM; in the assay on RXF 393 renal it was 0.652 µM. Further, the TGI is 1.54 µM in the assay with SNB-75 CNS, 1.71 µM in the assay on HOP-92 NSCLC, 2 µM with SF-268 CNS and 2.72 µM with SK-MEL-2 melanoma.

As to `Oc1cc(Cl)ccc1Oc1ccc(Cl)cc1Cl`, the GI50 with OVCAR-5 ovarian is 3.37 µM; in the assay on LOX IMVI melanoma, 1.87 µM; in the assay on MOLT-4 leukemia, 3.74 µM; in the assay on PC-3 prostate, 2.78 µM; in the assay on RXF 393 renal it was 2.06 µM; in the assay with SNB-75 CNS, 2.31 µM. Also, the GI50 with HOP-92 NSCLC is 2.11 µM; in the assay with SF-268 CNS, 4.53 µM; in the assay on SK-MEL-2 melanoma, 2.41 µM. For the same compound, the TGI in the assay on OVCAR-5 ovarian is 12.1 µM; in the assay on LOX IMVI melanoma it was 3.86 µM; with MOLT-4 leukemia, 11.3 µM; in the assay on PC-3 prostate it was 8.43 µM; in the assay with RXF 393 renal, 5.09 µM; with SNB-75 CNS it was 8.71 µM. Moreover, the TGI was found to be 5.69 µM in the assay with HOP-92 NSCLC, 16.4 µM with SF-268 CNS and 5.01 µM with SK-MEL-2 melanoma.
